According to patent US5658906A, “Cysteine protease and serine protease inhibitors” (Cephalon, Inc., priority 1996, dated 1997):

Legend:
Cathepsin B = target: T1, Cathepsin B (Homo sapiens, UniProt P07858); test: Inhibition and rate of inactivation of cathepsin B (Cbz-Phe-Arg-AMC hydrolysis); format: biochemical; details: pH 6.0, 0.1 mM substrate, read-out: k2 (second order rate constant of inactivation), C = Cathepsin B
T1 construct: purchased Calbiochem 219364
Protocol: Additionally, the order of reagents added to the plate was altered because both enzymes are constitutively active. Following inhibitor addition to the plates appropriate 2× concentrated stock dilutions of the enzyme preparations were made in assay buffer and 100 ul added to each well. The assay was initiated by addition of 100 ul of 2× concentrated stock dilution of substrate in assay buffer. Substrate hydrolysis was monitored using a Fluroskan II (ex=390 nm; em=460 nm).
Inhibition of enzyme activity was calculated as the percent decrease in the rate of substrate hydrolysis in the presence of inhibitor (.upsilon.i) relative to the rate in its absence (.upsilon.o). Comparison between .upsilon.o and .upsilon.i was made within the linear range for substrate hydrolysis. For screening, compounds were tested at 10 μM. Compounds having ≥50% inhibition at 10 μM were considered active. Apparent second order rate constants were determined from analysis of reaction progress curves under pseudo-first order conditions. Each determination represents the mean of three or more independent single cuvette analyses continually monitored via a Perkin-Elmer LS50B spectrofluorimeter. The rate of inhibition of hydrolysis was obtained by fitting the curve to the exponential equation (1):
y=Ae^-k.spsb.obs·t +B (1)
where y (Pt) is the product formed at time t. A and B are constants. A, the amplitude of the reaction, is given by [Po -P.varies. ] and B (=P.varies.) is the maximal product formed when the reaction is […]. This was corrected for the presence of equation (2): […]

Calpain I = target: T2, Calpain I (Homo sapiens, UniProt P07384); test: Inhibition and rate of inactivation of calpain I (Succ-Leu-Tyr-MNA hydrolysis); format: biochemical; details: mean of three or more independent analyses, corrected for substrate, k2 = kapp(1+[S]/Km), read-out: k2 (second order rate constant of inactivation), A = Calpain I
T2 construct: Calpain I was purified from human red blood cells; from tissue; host or cells: human red blood cells (packed, outdated)
T2 sequence (P07384 1-714): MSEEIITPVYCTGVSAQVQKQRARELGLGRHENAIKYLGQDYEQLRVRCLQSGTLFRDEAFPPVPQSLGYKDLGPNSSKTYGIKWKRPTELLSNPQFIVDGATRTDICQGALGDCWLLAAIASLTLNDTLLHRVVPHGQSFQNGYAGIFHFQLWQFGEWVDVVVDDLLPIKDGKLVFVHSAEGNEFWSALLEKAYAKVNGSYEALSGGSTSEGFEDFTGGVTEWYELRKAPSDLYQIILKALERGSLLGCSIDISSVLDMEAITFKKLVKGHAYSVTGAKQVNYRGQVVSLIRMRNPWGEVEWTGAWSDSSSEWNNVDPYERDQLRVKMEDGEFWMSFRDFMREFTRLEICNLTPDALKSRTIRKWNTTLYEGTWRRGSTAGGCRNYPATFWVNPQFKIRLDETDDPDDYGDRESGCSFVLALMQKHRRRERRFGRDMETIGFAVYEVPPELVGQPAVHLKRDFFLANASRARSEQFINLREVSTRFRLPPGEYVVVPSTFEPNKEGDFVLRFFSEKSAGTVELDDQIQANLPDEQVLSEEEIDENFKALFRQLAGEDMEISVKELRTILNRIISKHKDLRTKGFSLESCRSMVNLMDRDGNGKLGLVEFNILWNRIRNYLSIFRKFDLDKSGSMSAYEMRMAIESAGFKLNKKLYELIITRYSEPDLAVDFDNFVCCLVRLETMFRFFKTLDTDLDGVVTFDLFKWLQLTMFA
T2 sequence (P04632 1-268 partner): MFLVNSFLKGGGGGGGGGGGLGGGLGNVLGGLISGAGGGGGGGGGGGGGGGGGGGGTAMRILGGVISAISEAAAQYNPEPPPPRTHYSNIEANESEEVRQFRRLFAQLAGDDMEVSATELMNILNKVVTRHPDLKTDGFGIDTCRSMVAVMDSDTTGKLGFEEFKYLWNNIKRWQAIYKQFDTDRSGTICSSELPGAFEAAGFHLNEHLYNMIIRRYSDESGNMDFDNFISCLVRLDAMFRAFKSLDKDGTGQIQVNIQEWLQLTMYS
Protocol: To evaluate inhibitory activity of our compounds, stocks (40 times concentrated) of each compound to be tested were prepared in 100% anhydrous dimethyl sulfoxide (DMSO) and 5 μl of each inhibitor preparation was aliquoted into each of three wells of a 96 well plate. Calpain I was purified from human red blood cells using a modification of the method described by Lee, W. J. et al. (Biochem. Internatl. (1990)22(1): 163-171). Briefly, 3 units of packed outdated red blood cells were washed 3× by repeated centrifugation at 500 rpm for 10 minutes through 900 mls of 0.9% NaCl. Cells were lysed in 20 mM Tris/1 mM EDTA/1 mM EGTA/5 mM mercaptoethanol (Buffer A) and centrifuged for 1 hour at 12,000 rpm in a GSA rotor using a Sorval centrifuge. The supernatant was collected and applied to a DEAE-sepharose FF column equilibrated in Buffer A+25 mM NaCl. After washing the column in Buffer A+25 mM NaCl, the bound protein was eluted at 117 ml/hr with a 25 mM to 150 mM NaCl linear gradient in Buffer A collecting 200, 10 mL fractions. Two μl of every fifth fraction was applied to nitrocelluose using a dot blot apparatus and calpain containing fractions identified by Western analysis. For detection of calpain, nitrocellulose sheets were first blocked in 5% Blotto (5% Carnation instant milk/10 mM Tris/[…]150 mM NaCl) for 30 minutes, followed by incubation for 1 hour in antibody directed against Calpain I (rabbit anti-human calpain I polyclonal sera, 1:1000 dilution in 5% Blotto). After three 5 minutes washes in 10 mM Tris/150 mM NaCl/0.05% Tween 20 the nitrocellulose was incubated for 1 hour in secondary alkaline phosphatase conjugated antibody (Biorad Cat#170-6518 1:2000 in 5% Blotto). After three 5 minutes washes in 10 mM Tris/150 mM NaCl/0.05% Tween 20 and 1 wash in 10 mM Tris/150 mM NaCl the nitrocellulose was incubated for up to 2 hours in a colorimetric substrate solution (Biorad Alkaline Phosphatase Substrate conjugate kit, cat#170-6432). The reaction was stopped by washing in water. After fractions containing calpain, and those in between, were pooled, solid ammonium sulfate was added to achieve a 30% solution and the mixture stirred for 1 hour at 4° C. Following collection of the precipitate by centrifugation for 1 hour at 4° C. at 12K rpm in a GSA rotor, the supernatant was collected and brought to 45% in ammonium sulfate. After stirring for 1 hour at 4° C., centrifugation was repeated. The supernatant was discarded and the precipitate resuspended in approximately 7 mls and dialyzed overnight at 4° C. against Buffer A+50 mM NaCl. The sample was then applied to a S300 gel filtration column preequilibrated in Buffer A+50 mM NaCl, washed and eluted at a flow rate of 20 ml/hr, collecting 200, 4 ml fractions. The peak of calpain was determined by assaying aliquots of every fifth fraction for enzyme activity monitored by the hydrolysis of a fluorogenic dipeptide substrate as described below. The peak fractions were pooled and the enzyme preparation used to test compounds for inhibitory activity. As an alternate to enzyme isolated from tissue sources, recombinant human calpain I has also been used to monitor compounds for inhibitory activity.
The foregoing enzyme preparation was diluted into assay buffer (i.e., 50 mM Tris, 50 mM NaCl, 1 mM EDTA, 1 mM EGTA, and 5 mM β-mercaptoethanol, pH 7.5 including 0.2 mM Succ-Leu-Tyr-MNA) and 175 μl aliquoted into the same wells containing the independent inhibitor stocks as well as to positive control wells containing 5 μl DMSO, but no compound. To start the reaction, 20 μl of 50 mM CaCl2 in assay buffer was added to all wells of the plate, excepting three, which were used as background signal baseline controls. Substrate hydrolysis was monitored every 5 minutes for a total of 30 minutes using Flouroskan II (ex=340 nm; em=430 nm). Substrate hydrolysis in the absence of inhibitor was linear for up to 15 minutes. […]

kinact/KI (Cathepsin B) | kinact/KI (Calpain I) | Structure (SMILES)
– | 112000 M⁻¹ s⁻¹ | Cc1ccc2nnn(OCC(=O)[C@H](Cc3ccccc3)NC(=O)[C@H](CC(C)C)NC(=O)OCc3ccccc3)c2c1 [Example 26, 1-[N-[N-Benzyloxycarbonyl-L-leucyl]-3S-4-phenyl-3-amino-2-oxobutyloxy]-6'-methylbenzotriazole]
– | 230000 M⁻¹ s⁻¹ | Cc1ccc2c(c1)nnn2OCC(=O)[C@H](Cc1ccccc1)NC(=O)[C@H](CC(C)C)NC(=O)OCc1ccccc1 [Example 27, 1-[N-[N-Benzyloxycarbonyl-L-leucyl]-3S-4-phenyl-3-amino-2-oxobutyloxy]-5'-methylbenzotriazole]
– | 171000 M⁻¹ s⁻¹ | COc1cc2nnn(OCC(=O)[C@H](Cc3ccccc3)NC(=O)[C@H](CC(C)C)NC(=O)OCc3ccccc3)c(=O)c2cc1OC [Example 29, 1-[N-[N-Benzyloxycarbonyl-L-leucyl]-3S-4-phenyl-3-amino-2-oxobutyloxy]-3-(6',7'-dimethoxy)benzotriazin-4-one]
– | 180000 M⁻¹ s⁻¹ | CC(C)C[C@H](NC(=O)OCc1ccccc1)C(=O)N[C@@H](Cc1ccccc1)C(=O)COn1nnc2ccc(Cl)cc2c1=O [Example 30, 1-[N-[N-Benzyloxycarbonyl-L-leucyl]-3S-4-phenyl-3-amino-2-oxobutyloxy]-3-(6'-chloro)benzotriazin-4-one]
– | 46000 M⁻¹ s⁻¹ | CC(C)C[C@H](NC(=O)[C@H](CC(C)C)NC(=O)OCc1ccccc1)C(=O)COn1nnc2ccccc2c1=O [Example 31, 1-[N-[N-Benzyloxycarbonyl-L-leucyl]-3S-5-methyl-3-amino-2-oxohexyloxy]-3-benzotriazin-4-one]
– | 3000 M⁻¹ s⁻¹ | CC[C@H](C(=O)C[C@@H](CC(C)C)C(=O)N[C@@H](Cc1ccccc1)C(=O)COn1nnc2ccccc21)c1ccccc1 [Example 46, 1-[N-[2R-(2-methylpropyl)-1,4-dioxo-5S-phenylheptan-1-yl]-3S-3-amino-2-oxo-4-phenylbutyloxy]benzotriazole]

Continued, compound first:

Structure (SMILES) | kinact/KI (Cathepsin B) | kinact/KI (Calpain I)
Cc1cc2c(cc1Cl)nnn2OCC(=O)[C@H](Cc1ccccc1)NC(=O)[C@H](CC(C)C)NC(=O)OCc1ccccc1 [Example 13, 1-[N-[N-Benzyloxycarbonyl-L-leucyl]-3S-4-phenyl-3-amino-2-oxobutyloxy]-5'-chloro-6'methylbenzotriazole] | 29000 M⁻¹ s⁻¹ | 116000 M⁻¹ s⁻¹
CC(C)C[C@H](NC(=O)OCc1ccccc1)C(=O)N[C@@H](Cc1ccccc1)C(=O)COn1nnc2c(Cl)cccc21 [Example 14, 1-[N-[N-Benzyloxycarbonyl-L-leucyl]-3S-4-phenyl-3-amino-2-oxybutyloxy]-4'-chlorobenzotriazole] | – | 157000 M⁻¹ s⁻¹
CC(C)C[C@H](NC(=O)OCc1ccccc1)C(=O)N[C@@H](Cc1ccccc1)C(=O)COn1nnc2ccc(-c3ccccc3)cc21 [Example 15, 1-[N-[N-Benzyloxycarbonyl-L-leucyl]-3S-4-phenyl-3-amino-2-oxybutyloxy]-6'-phenylbenzotriazole] | 16000 M⁻¹ s⁻¹ | 77000 M⁻¹ s⁻¹
CC(C)C[C@H](NC(=O)OCc1ccccc1)C(=O)N[C@@H](Cc1ccccc1)C(=O)COn1nnc2cc(Cl)ccc21 [Example 17, 1-[N-[N-Benzyloxycarbonyl-L-leucyl]-3S-4-phenyl-3-amino-2-oxybutyloxy]-5'-chlorobenzotriazole] | – | 164000 M⁻¹ s⁻¹
CC(C)C[C@H](NC(=O)OCc1ccccc1)C(=O)N[C@@H](Cc1ccccc1)C(=O)COn1nnc2cc(Cl)c(Cl)cc21 [Example 18, 1-[N-[N-Benzyloxycarbonyl-L-leucyl]-3S-4-phenyl-3-amino-2-oxybutyloxy]-5',6'-dichlorobenzotriazole] | 115000 M⁻¹ s⁻¹ | 65000 M⁻¹ s⁻¹
CC(C)C[C@H](NC(=O)OCc1ccccc1)C(=O)N[C@@H](Cc1ccccc1)C(=O)COn1nnc2c(Cl)c(Cl)c(Cl)c(Cl)c21 [Example 20, 1-[N-[N-Benzyloxycarbonyl-L-leucyl]-3S-4-phenyl-3-amino-2-oxybutyloxy]-4',5'6',7'-tetrachlorobenzotriazole] | – | 1300 M⁻¹ s⁻¹
CC(C)C[C@H](NC(=O)OCc1ccccc1)C(=O)N[C@@H](Cc1ccccc1)C(=O)COn1nnc2c(Cl)cc(Cl)c(Cl)c21 [Example 21, 1-[N-[N-Benzyloxycarbonyl-L-leucyl]-3S-4-phenyl-3-amino-2-oxybutyloxy]-4',6',7'-trichlorobenzotriazole] | 10000 M⁻¹ s⁻¹ | 1800 M⁻¹ s⁻¹
CC(C)C[C@H](NC(=O)OCc1ccccc1)C(=O)N[C@@H](Cc1ccccc1)C(=O)COn1nnc2c(Cl)c(Cl)ccc21 [Example 23, 1-[N-[N-Benzyloxycarbonyl-L-leucyl]-3S-4-phenyl-3-amino-2-oxybutyloxy]-4',5'-dichlorobenzotriazole] | – | 64000 M⁻¹ s⁻¹
CCc1cc2c(cc1Cl)nnn2OCC(=O)[C@H](Cc1ccccc1)NC(=O)[C@H](CC(C)C)NC(=O)OCc1ccccc1 [Example 24, 1-[N-[N-Benzyloxycarbonyl-L-leucyl]-3S-4-phenyl-3-amino-2-oxybutyloxy]-5'-chloro-6'-ethylbenzotriazole] | 30000 M⁻¹ s⁻¹ | 84000 M⁻¹ s⁻¹
